What all share (experiment): growth of human tumour cells (NCI), 48 h
In test [1] the test system is RPMI-8226 leukemia.
For test [2], the system named is M14 melanoma.
Test [3] has as its system OVCAR-4 ovarian.
The subject of test [4] is CCRF-CEM leukemia.
Test [5] relates to OVCAR-8 ovarian.
Test [6] has as its system OVCAR-3 ovarian.
Test [7] has as its system SNB-19 CNS.
For test [8], the system named is UACC-257 melanoma.
Test [9] relates to NCI-H23 lung.
In test [10] the test system is PC-3 prostate.

The results in this text go back to PubChem BioAssay (NCI).

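Grown in 96-well plates, cells were treated for 48 hours with each compound at five concentrations. Insufficient inhibition: endpoint recorded as highest concentration tested. GI50 = concentration required for 50% inhibition of growth. Definition used: TGI = concentration required for complete inhibition of growth.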

Consider `COC(=O)/C=C1\CCC2[C@@H](C(=O)CC3[C@]2(C)CCC[C@@]3(C)C(=O)OC)C1C` (some centres not stated), for which the TGI in [1] worked out at 19.9 µM; in [2] it was 34.2 µM; in test [3] it was 78.8 µM; in test [4], 38.1 µM; in test [5] it was 50.5 µM; in test [6], 89 µM. In addition, the results for the TGI in [7] and in test [8] were above 100 µM and 33.9 µM, respectively.

Take `Cc1nc2ccccc2c(=O)n1/N=C(\N=Nc1ccccc1)c1ccccc1Cl`: the TGI in test [1], in test [9], in test [2], in [3], in test [4] and in test [5] was above 100 µM in each case. The TGI in [6], in [7] and in test [8] was above 100 µM throughout.

Regarding `COC(=O)CCc1n(Cc2ccc3ccccc3c2)c2ccccc2[n+]1Cc1ccc2ccccc2c1`, the GI50 in test [9] was 0.583 µM; in test [10] it was 0.402 µM; in [2] it was 0.524 µM; in test [3], 0.315 µM; in test [5], 1.27 µM; in test [6], 0.682 µM. Further, the GI50 in [7] is 0.582 µM; in test [8], 0.549 µM. Moreover, the TGI in [9] is 2.56 µM; in test [10], 1.74 µM; in test [2], 2.04 µM; in test [3] it was 1.89 µM; in [5], 3.02 µM; in [6], 2.15 µM. In addition, the TGI in [7] was found to be 1.98 µM; in test [8] it was 2.37 µM.

Take `O=CCCn1[nH]c(=O)ccc1=O`: the TGI in test [1], in test [9], in test [2], in [3], in [4] and in test [5] was above 100 µM in each case. For the same compound, the TGI in test [6], in test [7] and in [8] was above 100 µM in each case.

With `C=CCCn1nc(-c2ccccc2)oc1=O`, the TGI in test [9], in test [2], in [3], in [4], in [5] and in [6] was above 100 µM in each case. In addition, the TGI in test [7] and in test [8] was above 100 µM throughout.

With `O=C1CCCc2ccc([N+](=O)[O-])c(O)c21`, the TGI in test [9], in test [2], in test [3], in [4], in test [5] and in [6] was above 100 µM each time. Besides, the TGI in test [7] and in test [8] was above 100 µM in each case.

For the compound `CCOC(=O)NC(=O)c1cn(CCSCCOC(=O)NCCCCCCNC(=O)OCCSCCn2cc(C(=O)NC(=O)OCC)c(=O)n(C)c2=O)c(=O)n(C)c1=O`, the TGI in test [1] is 66.8 µM; in [9], above 100 µM; in test [4], above 100 µM; in [5] it was 65.9 µM; in test [6], above 100 µM; in test [7], above 100 µM. This compound also returned a TGI in test [8] above 100 µM.

With `COc1ccc(/C=C/c2onc3c(=O)n(C)nc(-c4ccccc4)c23)cc1`, the TGI in [1], in [9], in [2], in test [4], in test [5] and in [7] was above 100 µM each time.

In the case of `Cn1cnc([N+](=O)[O-])c1Sc1n[nH]c(-c2ccc(Cl)cc2)n1`, the TGI stood at 87.7 µM in [1]; 37.9 µM in test [9]; 33.5 µM in test [2]; 57.4 µM in test [3]; 39.6 µM in test [4]; 32.4 µM in [5]. Also, the TGI is 40.4 µM in test [6], 51 µM in test [7] and 39.6 µM in test [8].

With `C[C@@H]1CC[C@@]2(C)OC(c3ccccc3)[C@H](CO)N2C1=O` (some centres not stated), the TGI in test [1], in test [9], in [3], in test [5], in test [6] and in test [7] was above 100 µM in each case. In test [8], this compound came in with a TGI above 100 µM.

In the case of `C[C@]12Cc3conc3C(O)=C1CC[C@@H]1C2CC[C@@]2(C)C1CC[C@@H]2O` (some centres not stated), the TGI in test [1] is 20.4 µM; in [9], 64.3 µM; in test [2] it was 50 µM; in test [3] it was above 100 µM; in test [4] it was 55.5 µM; in test [5] it was 88.5 µM. In addition, the TGI is 52.5 µM in test [6], above 100 µM in test [7] and above 100 µM in test [8].

On to `COc1ccc(Nc2ncc(I)c(NCCCNC(=O)C3CCC3)n2)cc1`, for which the GI50 was 10.3 µM in test [1]; 5.26 µM in test [9]; 13.4 µM in [2]; 9.31 µM in [3]; 4.96 µM in test [4]; 8.6 µM in [5]. Further, the GI50 is 7.83 µM in [6], 5.26 µM in test [7] and 15 µM in test [8]. The TGI in test [1] was 53.8 µM; in test [9], 46.9 µM; in test [2] it was above 100 µM; in [3], 64.2 µM; in test [4], above 100 µM; in test [5], above 100 µM. Besides, the values for the TGI in [6], in test [7] and in test [8] were 33.8 µM, above 100 µM and 93 µM, respectively.

Take `CN(C)CC1(C)CC/C(=C\c2ccc(Cl)cc2)C1=O` (configuration not stated): the TGI in test [1] is 43.4 µM; in [9], above 100 µM; in test [2] it was above 100 µM; in [3], above 100 µM; in test [4], 68.4 µM; in test [5], above 100 µM. Moreover, the results for the TGI in [6], in test [7] and in test [8] were above 100 µM, 65.2 µM and above 100 µM, respectively.

Consider `c1cc[c]([Ge]([O]c2cccc3cccnc23)([c]2ccccc2)[c]2ccccc2)cc1`, for which the GI50 in [1] was 2.29 µM; in test [9], 2.96 µM; in test [2], 5.63 µM; in [3], 3.11 µM; in [5] it was 3.25 µM; in test [6], 2.55 µM. Also, the GI50 is 7.15 µM in [7] and 3.94 µM in test [8]. Further, the TGI is 6.77 µM in [1]; 8.16 µM in [9]; 17.5 µM in test [2]; 13.1 µM in test [3]; 10.6 µM in test [5]; 6.82 µM in test [6]. Further, the figures for the TGI in [7] and in test [8] were 19.5 µM and 14.5 µM, respectively.

Take `C=C(C)CC(C(=O)O)c1ccc(C)cc1` (configuration not stated): the TGI in [1], in test [9], in test [3], in test [5], in test [6] and in test [7] was above 100 µM in each case. Besides, in test [8], the TGI was above 100 µM.

Consider `N#CC(Sc1ccccc1)C(N)=O` (configuration not stated), for which the TGI in test [1], in test [9], in [2], in test [3], in test [4] and in [5] was above 100 µM each time. Further, the TGI in test [6], in test [7] and in test [8] was above 100 µM each time.

On to `COc1ccc(C2(Cl)C(Cl)(C(F)(F)F)C2(Cl)C(F)(F)F)cc1` (configuration not stated), for which the TGI is 34.8 µM in test [1]; 27.8 µM in test [9]; 24.2 µM in test [2]; 30 µM in [3]; 33.2 µM in test [4]; 25.2 µM in [5]. For the same compound, the TGI worked out at 28.8 µM in [6], 29.1 µM in test [7] and 26.5 µM in test [8].

Consider `C=CC12CCCCC1CC(C(=O)OC)=C(O)C2` (configuration not stated), for which the TGI in test [1], in [9], in [2], in [3], in [4] and in test [5] was above 100 µM each time. Further, the TGI in test [6], in test [7] and in test [8] was above 100 µM each time.

Take `CCOC(=O)C1CC(=O)C=C2CCCCC21` (configuration not stated): the TGI in [1], in test [9], in [2], in test [3], in test [4] and in [5] was above 100 µM throughout. For the same compound, the TGI in test [6], in [7] and in test [8] was above 100 µM each time.

`O=C1CCC2(c3ccc(Cl)cc3)Nc3ccccc3N12` (configuration not stated): the TGI in test [1], in test [9], in [3], in test [5], in test [7] and in [8] was above 100 µM throughout.

`O/N=C1/CCCC/C1=C\c1ccc(Cl)c(Cl)c1`: the TGI was above 100 µM in test [9]; 82.9 µM in test [2]; 59.3 µM in test [3]; 59.7 µM in test [4]; above 100 µM in test [5]; 49.7 µM in test [6]. In [7], the TGI was found to be 91.6 µM.

Turning to `O=C(O)c1cnc2c(ccc3[nH]cccc32)c1=O`, the TGI in [9], in [2], in test [3], in [4], in [5] and in test [6] was above 100 µM each time. Further, the TGI in test [7] was above 100 µM.
